{
  "source": "paper PMC4725965",
  "about": "“Comprehensive Structural Characterization of the Bacterial Homospermidine Synthase–an Essential Enzyme of the Polyamine Metabolism” (Scientific Reports, 2016)",
  "key": {"BvHSS [1]": {"molecular_target": "T1, BvHSS (Blastochloris viridis, UniProt O32323)", "T1 construct": "gene hss; full-length BvHSS from pETM14, E. coli BL21 (DE3); N-terminal 6xHis-tag cut with HRV3C protease; homodimer; active site within one subunit; domains cover residues 3-477; first four amino acids not traced", "T1 sequence (O32323 1-477)": "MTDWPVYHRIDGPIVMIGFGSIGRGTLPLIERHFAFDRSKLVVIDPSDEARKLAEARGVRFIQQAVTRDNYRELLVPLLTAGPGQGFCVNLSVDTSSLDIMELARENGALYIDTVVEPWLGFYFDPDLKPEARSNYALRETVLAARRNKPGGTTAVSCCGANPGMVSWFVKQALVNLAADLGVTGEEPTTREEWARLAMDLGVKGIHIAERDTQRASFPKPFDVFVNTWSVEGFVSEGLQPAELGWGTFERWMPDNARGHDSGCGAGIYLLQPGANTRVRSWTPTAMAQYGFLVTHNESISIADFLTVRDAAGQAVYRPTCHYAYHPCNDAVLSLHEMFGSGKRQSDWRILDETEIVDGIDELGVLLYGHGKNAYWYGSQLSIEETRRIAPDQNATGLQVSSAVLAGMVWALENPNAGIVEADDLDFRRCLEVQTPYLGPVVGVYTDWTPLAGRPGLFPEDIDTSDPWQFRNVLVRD", "assay": "X-ray crystallography", "assay_type": "binding"}, "BvHSS [2]": {"molecular_target": "T2, BvHSS (Blastochloris viridis, UniProt O32323, H296S)", "T2 construct": "gene hss; full-length BvHSS from pETM14, E. coli BL21 (DE3); N-terminal 6xHis-tag cut with HRV3C protease; homodimer; active site within one subunit; domains cover residues 3-477; first four amino acids not traced", "T2 sequence (O32323 whole entry H296S, the tested form may be a part)": "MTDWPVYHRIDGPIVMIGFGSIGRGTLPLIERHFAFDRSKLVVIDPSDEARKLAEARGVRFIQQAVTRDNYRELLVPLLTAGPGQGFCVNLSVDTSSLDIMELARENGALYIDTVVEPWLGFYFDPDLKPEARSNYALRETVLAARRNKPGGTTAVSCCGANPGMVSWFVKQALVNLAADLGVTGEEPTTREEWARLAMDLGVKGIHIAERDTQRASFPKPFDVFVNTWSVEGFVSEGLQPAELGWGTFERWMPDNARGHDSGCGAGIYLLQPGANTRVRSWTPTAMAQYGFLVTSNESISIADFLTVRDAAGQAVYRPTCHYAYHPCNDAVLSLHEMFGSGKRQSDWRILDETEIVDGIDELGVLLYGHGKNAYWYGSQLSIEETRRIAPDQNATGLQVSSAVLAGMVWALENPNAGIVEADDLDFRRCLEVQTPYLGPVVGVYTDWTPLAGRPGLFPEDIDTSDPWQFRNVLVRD", "assay": "X-ray crystallography", "assay_type": "binding", "conditions": "pH 4.6"}, "BvHSS [3]": {"molecular_target": "T3, BvHSS (Blastochloris viridis, UniProt O32323, E237Q)", "T3 construct": "gene hss; full-length BvHSS from pETM14, E. coli BL21 (DE3); N-terminal 6xHis-tag cut with HRV3C protease; homodimer; active site within one subunit; domains cover residues 3-477; first four amino acids not traced", "T3 sequence (O32323 whole entry E237Q, the tested form may be a part)": "as the sequence (O32323 whole entry H296S, the tested form may be a part) above, with E237Q, S296H counted along it", "assay": "X-ray crystallography", "assay_type": "binding", "conditions": "co-crystal with 0.2 M AGM and 0.2 M PUT; no polyamine in active site; pH 4.6"}, "[4]": {"molecular_target": "Blastochloris viridis homospermidine synthase (Blastochloris viridis) (UniProt O32323)", "assay": "crystal structure; hanging-drop vapour diffusion at 18 °C, reservoir 100 mM sodium acetate pH 4.6-4.8; NAD+ bound, with or without polyamines; two subunits (A and B) in the asymmetric unit"}, "BvHSS [5]": {"molecular_target": "T1, BvHSS", "assay": "X-ray crystallography", "assay_type": "biochemical", "conditions": "DAP co-crystal soaked 300 s with 0.2 M PUT; product formed in crystal; pH 4.8; active site, subunit A; transition-close state with partial Schiff base, modelled as 37Z"}},
  "data": [
    {"compound": "NCCCN", "note": "[1,3-diaminopropane]", "values": [
      {"measurement": "X-ray crystallography", "setting": "BvHSS [1]; co-crystal with 0.2 M DAP and 0.2 M PUT, NAD+ bound, pH 4.6, active site, second DAP at the ionic slide (pocket entrance), Table 3 misprints the PDB id as 4XQE", "result": "Two DAP molecules were found at two different positions in subunit A (PDB ID: 4XQC)"}
    ]},
    {"compound": "NCCCCN", "note": "[putrescine]", "values": [
      {"measurement": "X-ray crystallography", "setting": "BvHSS [2]; AGM co-crystal soaked 300 s with 0.2 M PUT, NAD+ bound, active site, partial occupancy beside AGM, enzymatically inactive variant", "result": "partial replacement of AGM with PUT (Fig. 6f)"},
      {"measurement": "X-ray crystallography", "setting": "BvHSS [1]; DAP co-crystal soaked 300 s with 0.2 M PUT, NAD+ bound, pH 4.8, inner binding site, subunit B, transition-close state", "result": "The active site of BvHSS with bound PUT (PDB ID: 4TVB, subunit B)"}
    ]},
    {"compound": "NC(=O)c1ccc[n+]([C@@H]2O[C@H](COP(=O)(O)OP(=O)(O)OC[C@H]3O[C@@H](n4cnc5c(N)ncnc54)[C@H](O)[C@@H]3O)[C@@H](O)[C@H]2O)c1", "note": "[NAD^+]", "values": [
      {"measurement": "X-ray crystallography", "setting": "BvHSS [2]; co-crystal with 0.2 M AGM", "result": "BvHSS and BvHSS variants with bound NAD^+ in complex with various polyamines"},
      {"measurement": "X-ray crystallography", "setting": "BvHSS [1]; no polyamine, pH 4.6, non-covalently bound prosthetic group", "result": "with bound NAD^+ (Protein Data Bank [PDB] ID: 4PLP)"},
      {"measurement": "X-ray crystallography", "setting": "BvHSS [3]", "result": "BvHSS and BvHSS variants with bound NAD^+ in complex with various polyamines"}
    ]},
    {"compound": "Blastochloris viridis homospermidine synthase (from UniProt O32323 1-477) (enzyme)", "values": [
      {"measurement": "stoichiometry N", "setting": "[4]", "result": 2}
    ]},
    {"compound": "N=C(N)NCCCCN", "note": "[agmatine]", "values": [
      {"measurement": "X-ray crystallography", "setting": "BvHSS [2]; co-crystal with 0.2 M AGM, NAD+ bound, active site", "result": "the variant H296S was found to bind AGM within the active site"}
    ]},
    {"compound": "NCCCCNCCCCN", "note": "[sym-homospermidine, bis(4-aminobutyl)amine]", "values": [
      {"measurement": "X-ray crystallography", "setting": "BvHSS [5]", "result": "transition close state of the reduction to HSP bound in subunit A"}
    ]}
  ]
}
